Article PMC8161026, “Synthesis and Anticancer Activity Evaluation of 5-[2-Chloro-3-(4-nitrophenyl)-2-propenylidene]-4-thiazolidinones” (Molecules, 2021)

Assays:
DU-145 = test: cells; settings: Homo sapiens, DU-145, 48 h
RPMI-8226 = test: cells; settings: Homo sapiens, RPMI-8226, 48 h
Melanoma subpanel = test: cells
Description: (§1) At the first stage of biological activity study, the antitumor activity screening of the selected compounds 2b, 2c, 2f, 2h, and 2j was performed according to the NCI DTP (USA) standard protocol at the concentrations ranging from 10^−4 to 10^−8 M toward 60 tumor cell lines. The percentage of growth was evaluated spectrophotometrically versus controls not treated with test agents after 48 h exposure and using SRB protein assay to estimate cell viability or growth. Dose–response parameters were calculated for each cell line: GI50—molar concentration of the compound that inhibits 50% net cell growth; TGI—molar concentration of the compound leading to the total inhibition; and LC50—molar concentration of the compound leading to 50% net cell death. Furthermore, mean graph midpoints (MG_MID) were calculated for each of the parameters, giving an average activity parameter over all cell lines for the tested compound. For the MG_MID calculation, insensitive cell lines were included with the highest concentration tested.
(§2) The selectivity index (SI) obtained by dividing the full panel MG-MID (mM) of the tested compound by their individual subpanel MG-MID (mM) was considered as a measure of selectivity of anticancer activity (Table 3).
(§3) Primary anticancer assay was performed on a panel of approximately sixty human tumor cell lines derived from nine neoplastic diseases, in accordance with the protocol of the Drug Evaluation Branch, National Cancer Institute, Bethesda. Tested compounds were added to the culture at a single concentration (10^−5 M) and the cultures were incubated for 48 h. End point determinations were made with a protein binding dye, sulforhodamine B (SRB). […] The percentage growth was evaluated spectrophotometrically versus controls not treated with test agents.
(§4) Dose–response parameters (GI50, TGI, LC50) were calculated for each compound. […] The drug concentration resulting in total growth inhibition (TGI) was calculated from Ti = Tz. The LC50 (concentration of drug resulting in a 50% reduction in the measured protein at the end of the drug treatment as compared to that at the beginning) indicating a net loss of cells following treatment was calculated from [(Ti − Tz)/Tz] × 100 = −50 (2). Values were calculated for each of these parameters if the level of activity was reached; however, if the effect was not reached or was excessive, the value for that parameter was expressed as more or less than the maximum or minimum concentration tested.

Colon Cancer subpanel = test: cells
Description: as §1, §2, §3, §4

[1] = tested on: Non-Small Cell Lung Cancer subpanel; test: cells
Description: as §1, §2, §3, §4

Leukemia subpanel = test: cells
Description: as §1, §2, §3, §4

Prostate Cancer subpanel = test: cells
Description: as §1, §2, §3, §4

Breast Cancer subpanel = test: cells
Description: as §1, §2, §3, §4

Ovarian Cancer subpanel = test: cells
Description: as §1, §2, §3, §4

Renal Cancer subpanel = test: cells
Description: as §1, §2, §3, §4

CNS Cancer subpanel = test: cells
Description: as §1, §2, §3, §4

60 tumor cell lines = test: NCI60 full panel MG_MID
Description: as §1, §3, §4

T-47D [2] = settings: T-47D (Breast Cancer), 48 h, SRB
Colo 205 = test: NCI DTP 60 cell line screen, SRB
HOP-92 = test: NCI DTP 60 cell line screen, SRB
MOLT-4 [3] = tested on: MOLT-4
OVCAR-4 = test: NCI DTP 60 cell line screen, SRB
MOLT-4 [4] = test: cells; settings: Homo sapiens, MOLT-4, 48 h
T-47D [5] = test: cells; settings: Homo sapiens, T47D, 48 h
[6] = Homo sapiens, read-out: MG_MID, GI50
[7] = Homo sapiens, read-out: MG_MID, LC50
[8] = full panel MG_MID / Melanoma subpanel MG_MID
[9] = full panel MG_MID / Colon Cancer subpanel MG_MID
[10] = full panel MG_MID / Non-Small Cell Lung Cancer subpanel MG_MID
[11] = full panel MG_MID / Leukemia subpanel MG_MID
[12] = full panel MG_MID / Prostate Cancer subpanel MG_MID
[13] = full panel MG_MID / Breast Cancer subpanel MG_MID
[14] = full panel MG_MID / Ovarian Cancer subpanel MG_MID
[15] = full panel MG_MID / Renal Cancer subpanel MG_MID
[16] = full panel MG_MID / CNS Cancer subpanel MG_MID

**Q.** How did the GI50 (DU-145) turn out when `O=C(O)C(Cc1ccccc1)N1C(=O)/C(=C/C(Cl)=C/c2ccc([N+](=O)[O-])cc2)SC1=S` (centres unmarked) [Compound 2j, 2-{5-[(Z,2Z)-2-Chloro-3-(4-nitrophenyl)-2-propenylidene]-4-oxo-2-thioxothiazolidin-3-yl}-3-phenylpropanoic acid] was run?
**A.** 2.06 µM

**Q.** And the CC50 (DU-145; read-out: LC50)?
**A.** 11.7 µM

**Q.** What about the GI50 (RPMI-8226) of the same compound?
**A.** 3.22 µM

**Q.** And the CC50 (RPMI-8226; read-out: LC50)?
**A.** > 100 µM

**Q.** What about the GI50 (Melanoma subpanel; [6]) of the same compound?
**A.** 2 µM

**Q.** What about the CC50 (Melanoma subpanel; [7]) of the same compound?
**A.** 50.6 µM

**Q.** And the “MG_MID, TGI” value (Melanoma subpanel; Melanoma panel mean)?
**A.** 17.9 µM

**Q.** What about the “SI (selectivity index), GI50” value (Melanoma subpanel; [8]) of the same compound?
**A.** 2.05

**Q.** And the “SI (selectivity index), LC50” value (Melanoma subpanel; [8])?
**A.** 1.46

**Q.** What about the “SI (selectivity index), TGI” value (Melanoma subpanel; [8]) of the same compound?
**A.** 2.27

**Q.** And the “MG_MID, TGI” value (Colon Cancer subpanel; Colon Cancer panel mean)?
**A.** 18.7 µM

**Q.** And the GI50 (Colon Cancer subpanel; [6])?
**A.** 2.19 µM

**Q.** What about the CC50 (Colon Cancer subpanel; [7]) of the same compound?
**A.** 67.4 µM

**Q.** And the “SI (selectivity index), GI50” value (Colon Cancer subpanel; [9])?
**A.** 1.87

**Q.** And the “SI (selectivity index), LC50” value (Colon Cancer subpanel; [9])?
**A.** 1.10

**Q.** What about the “SI (selectivity index), TGI” value (Colon Cancer subpanel; [9]) of the same compound?
**A.** 2.17

**Q.** And the GI50 [1, 6]?
**A.** 13.1 µM

**Q.** And the CC50 [1, 7]?
**A.** 92.9 µM

**Q.** What about the “MG_MID, TGI” value ([1]; Non-Small Cell Lung Cancer panel mean) of the same compound?
**A.** 36.9 µM

**Q.** What about the “SI (selectivity index), GI50” value [1, 10] of the same compound?
**A.** 0.31

**Q.** What about the “SI (selectivity index), LC50” value [1, 10] of the same compound?
**A.** 0.80

**Q.** And the “SI (selectivity index), TGI” value [1, 10]?
**A.** 1.10

**Q.** And the “TI (Therapeutic Index)” value (Leukemia subpanel; GI50 (normal blood lymphocyte)/GI50 (Leukemia Panel))?
**A.** 16.60

**Q.** What about the GI50 (Leukemia subpanel; [6]) of the same compound?
**A.** 2.95 µM

**Q.** What about the CC50 (Leukemia subpanel; [7]) of the same compound?
**A.** > 100 µM

**Q.** And the “MG_MID, TGI” value (Leukemia subpanel; Leukemia panel mean)?
**A.** >100 µM

**Q.** What about the “SI (selectivity index), GI50” value (Leukemia subpanel; [11]) of the same compound?
**A.** 1.39

**Q.** And the “SI (selectivity index), LC50” value (Leukemia subpanel; [11])?
**A.** <0.74

**Q.** And the “SI (selectivity index), TGI” value (Leukemia subpanel; [11])?
**A.** <0.41

**Q.** What about the GI50 (Prostate Cancer subpanel; [6]) of the same compound?
**A.** 2.3 µM

**Q.** What about the CC50 (Prostate Cancer subpanel; [7]) of the same compound?
**A.** 55.9 µM

**Q.** And the “MG_MID, TGI” value (Prostate Cancer subpanel; Prostate Cancer panel mean)?
**A.** 6.27 µM

**Q.** What about the “SI (selectivity index), GI50” value (Prostate Cancer subpanel; [12]) of the same compound?
**A.** 1.78

**Q.** And the “SI (selectivity index), LC50” value (Prostate Cancer subpanel; [12])?
**A.** 1.32

**Q.** What about the “SI (selectivity index), TGI” value (Prostate Cancer subpanel; [12]) of the same compound?
**A.** 6.48

**Q.** What about the “MG_MID, TGI” value (Breast Cancer subpanel; Breast Cancer panel mean) of the same compound?
**A.** 37.0 µM

**Q.** And the GI50 (Breast Cancer subpanel; [6])?
**A.** 24.6 µM

**Q.** What about the CC50 (Breast Cancer subpanel; [7]) of the same compound?
**A.** 84.6 µM

**Q.** And the “SI (selectivity index), GI50” value (Breast Cancer subpanel; [13])?
**A.** 0.17

**Q.** And the “SI (selectivity index), LC50” value (Breast Cancer subpanel; [13])?
**A.** 0.87

**Q.** What about the “SI (selectivity index), TGI” value (Breast Cancer subpanel; [13]) of the same compound?
**A.** 1.10

**Q.** What about the GI50 (Ovarian Cancer subpanel; [6]) of the same compound?
**A.** 3 µM

**Q.** What about the CC50 (Ovarian Cancer subpanel; [7]) of the same compound?
**A.** 84.5 µM

**Q.** What about the “MG_MID, TGI” value (Ovarian Cancer subpanel; Ovarian Cancer panel mean) of the same compound?
**A.** 68.6 µM

**Q.** And the “SI (selectivity index), GI50” value (Ovarian Cancer subpanel; [14])?
**A.** 1.36

**Q.** What about the “SI (selectivity index), LC50” value (Ovarian Cancer subpanel; [14]) of the same compound?
**A.** 0.87

**Q.** And the “SI (selectivity index), TGI” value (Ovarian Cancer subpanel; [14])?
**A.** 0.59

**Q.** And the GI50 (Renal Cancer subpanel; [6])?
**A.** 2.03 µM

**Q.** What about the CC50 (Renal Cancer subpanel; [7]) of the same compound?
**A.** 42.6 µM

**Q.** And the “MG_MID, TGI” value (Renal Cancer subpanel; Renal Cancer panel mean)?
**A.** 27.8 µM

**Q.** And the “SI (selectivity index), GI50” value (Renal Cancer subpanel; [15])?
**A.** 2.01

**Q.** And the “SI (selectivity index), LC50” value (Renal Cancer subpanel; [15])?
**A.** 1.73

**Q.** What about the “SI (selectivity index), TGI” value (Renal Cancer subpanel; [15]) of the same compound?
**A.** 1.46

**Q.** And the GI50 (CNS Cancer subpanel; [6])?
**A.** 2.18 µM

**Q.** And the CC50 (CNS Cancer subpanel; [7])?
**A.** 7.21 µM

**Q.** What about the “SI (selectivity index), GI50” value (CNS Cancer subpanel; [16]) of the same compound?
**A.** 1.88

**Q.** And the “SI (selectivity index), LC50” value (CNS Cancer subpanel; [16])?
**A.** 10.25

**Q.** What about the “SI (selectivity index), TGI” value (CNS Cancer subpanel; [16]) of the same compound?
**A.** 11.53

**Q.** And the GI50 (60 tumor cell lines; Homo sapiens, read-out: 60 lines MG_MID, GI50)?
**A.** 4.09 µM

**Q.** What about the CC50 (60 tumor cell lines; Homo sapiens, read-out: 60 lines MG_MID, LC50) of the same compound?
**A.** 73.9 µM

**Q.** What about the “60 lines MG_MID, TGI” value (60 tumor cell lines; mean over all cell lines) of the same compound?
**A.** 40.6 µM

**Q.** What about the TGI (T-47D [2]) of the same compound?
**A.** 3.71 µM

**Q.** What about the TGI (Colo 205; Colo 205 (Colon Cancer), 48 h, SRB) of the same compound?
**A.** > 100 µM

**Q.** What about the GI50 (Colo 205; Homo sapiens, COLO 205, 48 h) of the same compound?
**A.** 2.45 µM

**Q.** And the CC50 (Colo 205; Homo sapiens, COLO 205, 48 h, read-out: LC50)?
**A.** > 100 µM

**Q.** And the TGI (HOP-92; HOP-92 (Non-Small Cell Lung Cancer), 48 h, SRB)?
**A.** 5.71 µM

**Q.** And the GI50 (HOP-92; Homo sapiens, HOP-92, 48 h)?
**A.** 2.36 µM

**Q.** And the CC50 (HOP-92; Homo sapiens, HOP-92, 48 h, read-out: LC50)?
**A.** > 100 µM

**Q.** What about the “TI (Therapeutic Index)” value (MOLT-4 [3]; GI50 (normal blood lymphocyte)/GI50 (MOLT-4)) of the same compound?
**A.** 15.59

**Q.** And the TGI (MOLT-4 [3]; MOLT-4 (Leukemia), 48 h, SRB)?
**A.** > 100 µM

**Q.** And the GI50 (OVCAR-4; Homo sapiens, OVCAR-4, 48 h)?
**A.** 3.21 µM

**Q.** And the CC50 (OVCAR-4; Homo sapiens, OVCAR-4, 48 h, read-out: LC50)?
**A.** > 100 µM

**Q.** And the TGI (OVCAR-4; OVCAR-4 (Ovarian Cancer), 48 h, SRB)?
**A.** > 100 µM

**Q.** What about the GI50 (MOLT-4 [4]) of the same compound?
**A.** 3.14 µM

**Q.** What about the CC50 (MOLT-4 [4]; read-out: LC50) of the same compound?
**A.** > 100 µM

**Q.** What about the GI50 (T-47D [5]) of the same compound?
**A.** 1.5 µM

**Q.** And the CC50 (T-47D [5]; read-out: LC50)?
**A.** > 100 µM
